US20070207993A1, “Molybdenum carbonyl complexes for treating rheumatoid arthritis and other inflammatory diseases” (Alfama - Investigacao e Desenvolvimetno De Productos …, priority 2005, published 2007)

Columns and labels:
[1] = CO release in the presence of reactive oxygen species (TBHP, H2O2, KO2); type: physicochemical; details: 25° C., dark; for Equivalents of CO2 released, H2O2 / Equivalents of CO released, H2O2: H2O2 100:1, water; for Equivalents of CO2 released, KO2 / Equivalents of CO released, KO2: KO2 100:1, THF; for Equivalents of CO2 released, TBHP / Equivalents of CO released, TBHP: TBHP 100:1, water
Protocol: The studies were done using the same method and apparatus described in Example 7 with the following modifications: RPMI/FBS was replaced by double distilled water in the experiments with H2O2 and TBHP and by tetrahydrofuran (THF) for the experiments with KO2; the temperature was kept at 25° C. The concentration of Compound I.1 was approximately 1 mM and the ration of concentrations of H2O2, TBHP and KO2 relative to Compound I.1 was 100:1. The amount of CO2 generated was also measured in the same experiment to ascertain the concurrent oxidation of coordinated CO. TBHP was added from a 70% aqueous solution and H2O2 from a 30% aqueous solution.

[2] = Solubility in water and RPMI; type: physicochemical
[3] = test system: Balb/c mice; test: Mortality in mice after injection of a lethal dose of LPS; type: in vivo; details: LPS 10 mg/kg i.p., four i.p. injections of 20 mg/kg at -60, -30 min, +4 h, +9 h
Protocol: Seventeen eight week old Balb/c mice received one intraperitoneal injection of LPS at a dose of 10 mg/kg at time zero. One group of eight mice received four intraperitoneal injections of Compound I.1, each at a dose of 20 mg/kg, at 60 and 30 minutes before LPS and at 4 hours and 9 hours after LPS. A second group of 9 mice received four intraperitoneal injections of vehicle (carboxymethylcellulose 0.5%, Tween80 0.5%) at 60 and 30 minutes before LPS and at 4 hrs and 9 hrs after LPS. Survival of the mice was monitored for 168 hours.

[4] = test system: Sprague Dawley rats; test: Toxicity in vivo, 20-day daily dosing; parameters: species or system rat; details: 80 mg/kg daily for 20 days, in olive oil
Protocol: Compound I.1 was dissolved in olive oil and administered to Sprague Dawley rats at a daily dose of 80 mg/kg for 20 days. At the end of the treatment the rats were anesthetized, blood was collected and organ samples were fixed in formalin for histological analysis.

[5] = Spontaneous CO release from suspensions (gas chromatography, TCD); type: physicochemical; details: dark; for Equivalents of CO released, H2O pH = 2.13: suspension in H2O pH 2.13, 37° C.; for Equivalents of CO released, H2O pH = 8.3: suspension in H2O pH 8.3, 37° C.; for Equivalents of CO released, RPMI: suspension in RPMI with 10% FBS; for Equivalents of CO released, RPMI / CO equivalents (average ± standard deviation) / Equivalents of CO released, Olive oil: 37° C.; for CO equivalents (average ± standard deviation): suspension in RPMI, eight independent assays; for Equivalents of CO released, Olive oil: suspension in olive oil
Protocol: CO detection was carried out by Gas Chromatography using a thermal conductivity detector (TCD) for the quantification of CO and CO2. The experiments were done under an initial atmosphere of reconstituted air, free of CO and CO2. […] […] Samples were withdrawn with gas-tight Hamilton syringes after homogenization of the head-space at given time intervals, preferably 2 hours, 4 hours and 6 hours. […] The volumes of CO released are usually in the range between 0.5-3 mL.
As a possible result of the use of suspensions, the number of CO equivalents released in RPMI varied slightly. As an example of the possible variations, the average of eight independent assays done with suspensions of Compound I.1 is given in Table 2.

[6] = test system: Wistar rats; test: Adjuvant arthritis in rats; type: in vivo, rat
Protocol: Adjuvant arthritis was induced in 11 week old, outbred Wistar rats (376-400 g) by a single intradermal injection into the subplanatar area of the right hind paw of 100 microliter of a 10 mg/ml suspension of mycobacterium butyricum in incomplete Freund's Adjuvant. The disease was induced in 3 groups of rats each consisting of 7 animals. […] Groups 2 and 3 received daily applications of methylene chloride (positive control) (500 mg/kg), or Compound I.1 (80 mg/kg), respectively. Both compounds were administered in olive oil by oral gavage. Treatment was initiated at day 10 after disease induction when signs of arthritis began to appear in the injected footpad as well as in the contralateral footpad. […] All animals were evaluated daily by determination of body weight, foot pad volume (performed by a water displacement method using a plethysmometer, Ugo Basile, Comerio, Italy), ankle circumference (using a flexible measuring tape) and arthritic index that is based on levels of erythema and oedema of the entire paws and digits, number of joints involved, spondilosis, lesions on tail, movement capacity and infections (0=normal, 1=swelling and/or redness of injected paw; 4=severe arthritis of the entire injected paw and digits; +2=2 joints are involved; +3=>2 joints are involved; +1=infection of paws; +1=tail lesions; +1=movement incapacity; +1=spondilosis). […]

In the case of `O=[C][Mo]([Br])([C]=O)([C]=O)([C]=O)[C]=O` [Compound I.1], the “Equivalents of CO2 released, H2O2” value ([1]; 1 h) is reported as 0.41 equivalents, the “Equivalents of CO released, H2O2” value ([1]; 1 h) is reported as 1.08 equivalents and the “Equivalents of CO2 released, H2O2” value ([1]; 3 h) is reported as 0.80 equivalents. For the same molecule, the “Equivalents of CO released, H2O2” value ([1]; 3 h) was 1.49 equivalents, the “Equivalents of CO2 released, H2O2” value ([1]; 5 h) was 0.90 equivalents and the “Equivalents of CO released, H2O2” value ([1]; 5 h) was 1.46 equivalents. The “Equivalents of CO2 released, H2O2” value ([1]; 24 h) was 0.89 equivalents, the “Equivalents of CO released, H2O2” value ([1]; 24 h) was 1.43 equivalents and the “Equivalents of CO2 released, KO2” value ([1]; 1 h) was 0.00 equivalents. For the same molecule, the “Equivalents of CO released, KO2” value ([1]; 1 h) was 1.94 equivalents, the “Equivalents of CO2 released, KO2” value ([1]; 3 h) was 0.00 equivalents and the “Equivalents of CO released, KO2” value ([1]; 3 h) was 3.22 equivalents. For the same molecule, the “Equivalents of CO2 released, KO2” value ([1]; 5 h) was 0.00 equivalents, the “Equivalents of CO released, KO2” value ([1]; 5 h) was 2.54 equivalents and the “Equivalents of CO2 released, KO2” value ([1]; 24 h) was 0.00 equivalents. For the same molecule, the “Equivalents of CO released, KO2” value ([1]; 24 h) was 2.29 equivalents, the “Equivalents of CO2 released, TBHP” value ([1]; 1 h) was 0.51 equivalents and the “Equivalents of CO released, TBHP” value ([1]; 1 h) was 2.51 equivalents. The “Equivalents of CO2 released, TBHP” value ([1]; 3 h) was 0.95 equivalents, the “Equivalents of CO released, TBHP” value ([1]; 3 h) was 3.77 equivalents and the “Equivalents of CO2 released, TBHP” value ([1]; 5 h) was 1.07 equivalents. The “Equivalents of CO released, TBHP” value ([1]; 5 h) was 3.94 equivalents, the “Equivalents of CO2 released, TBHP” value ([1]; 24 h) was 1.13 equivalents and the “Equivalents of CO released, TBHP” value ([1]; 24 h) was 3.93 equivalents. For the same molecule, the “solubility in water and RPMI” value [2] was “low solubility”, the “mice alive at 168 hours following LPS injection” value [3] was “three of the eight” and the “histologic analysis of liver, kidney, heart, and spleen” value [4] was “did not reveal any gross alterations”. For the same molecule, the serum creatinine [4] was “in the normal range”, the “serum glutamic oxalacetic transaminase (sGOT)” value [4] was “in the normal range” and the “serum glutamic pyruvic transaminase (sGPT)” value [4] was “in the normal range”. The serum urea [4] was “in the normal range”, the “signs of liver or kidney toxicity” value [4] was “No signs of liver or kidney toxicity” and the “Equivalents of CO released, H2O pH = 2.13” value (“Equivalents … H2O pH = 2.13” for short) ([5]; 2 hours) was 0.98 equivalents of CO. The “Equivalents … H2O pH = 2.13” value ([5]; 4 hours) was 1.00 equivalents of CO, the “Equivalents … H2O pH = 2.13” value ([5]; 6 hours) was 0.93 equivalents of CO and the “Equivalents of CO released, H2O pH = 8.3” value ([5]; 2 hours) was 1.24 equivalents of CO. For the same molecule, the “Equivalents of CO released, H2O pH = 8.3” value ([5]; 4 hours) was 1.03 equivalents of CO, the “Equivalents of CO released, H2O pH = 8.3” value ([5]; 6 hours) was 0.98 equivalents of CO and the “Equivalents of CO released, RPMI” value ([5]; 2 hours) was 1.82 equivalents of CO. For the same molecule, the “Equivalents of CO released, RPMI” value ([5]; 4 hours) was 2.16 equivalents of CO, the “Equivalents of CO released, RPMI” value ([5]; 6 hours) was 2.27 equivalents of CO and the “CO equivalents (average ± standard deviation)” value ([5]; 0.5 hours) was 0.64 ± 0.11 CO equivalents. The “CO equivalents (average ± standard deviation)” value ([5]; 1 hour) was 1.56 ± 0.13 CO equivalents, the “CO equivalents (average ± standard deviation)” value ([5]; 2 hours) was 1.82 ± 0.01 CO equivalents and the “CO equivalents (average ± standard deviation)” value ([5]; 3 hours) was 2.42 ± 0.38 CO equivalents. The “CO equivalents (average ± standard deviation)” value ([5]; 4 hours) was 2.16 ± 0.13 CO equivalents, the “CO equivalents (average ± standard deviation)” value ([5]; 5 hours) was 2.43 ± 0.39 CO equivalents and the “CO equivalents (average ± standard deviation)” value ([5]; 6 hours) was 2.27 ± 0.21 CO equivalents. For the same molecule, the “CO equivalents (average ± standard deviation)” value ([5]; 7 hours) was 2.51 ± 0.00 CO equivalents, the “CO equivalents (average ± standard deviation)” value ([5]; 24 hours) was 2.40 ± 0.00 CO equivalents and the “Equivalents of CO released, Olive oil” value ([5]; 2 hours) was 0.08 equivalents of CO. The “Equivalents of CO released, Olive oil” value ([5]; 4 hours) was 0.25 equivalents of CO, the “Equivalents of CO released, Olive oil” value ([5]; 6 hours) was 0.53 equivalents of CO and the “paw volume, paw circumference and arthritis index (all measured parameters) versus positive control” value ([6]; Wistar rats, 80 mg/kg daily oral gavage in olive oil, day 10 to 29, methylene chloride at 500 mg/kg) was “superior to methylene chloride”. For the same molecule, the “effect in control rats with severe arthritis treated from day 20 on” value ([6]; three rats of the control group, treated for 10 days) was “signs of improvements”.
